These are literature values, as cited in patent US20150230971A1, “MULTIPURPOSE DRUG DELIVERY SYSTEMS FOR LONG-TERM IMPLANTATION OR INSERTION” (PAT&CO BVBA, priority 2012, published 2015).

The series concerns rats and mice. The conditions noted are these: carcinomas and/or precursor lesions of oral cavity, lips, tongue, esophagus, forestomach.

As for `C=COC(C)=O` [VAM, vinyl acetate monomer], the carcinogenicity entry was “increase in total malignant tumors”.
